Tested on: arachidonic acid-induced ear swelling
Assay: topical arachidonic acid-induced ear swelling model in mice
Type: in vivo
Settings: male ICR mice; topical application 30 min before and 15 min after arachidonic acid; measured at 90 minutes; indomethacin 14 mM (0.1 mg/20 μL), 3-(methylthio)propionitrile 375 mM (1.0 mg/20 μL)
Method: The test compounds, indomethacin (positive control), and vehicle were evaluated for anti-inflammatory activity in a topical arachidonic acid-induced ear swelling model in mice. Male ICR mice weighing 22±2 g were used and randomly divided; each group had 10 mice. Arachidonic Acid (0.5 mg in 20 μl of acetone:ethanol/1:1) was applied topically to the anterior and posterior surfaces of the right ear of each mice. Test substances and vehicle, as listed in Table 1 were similarly applied 30 min before and 15 min after arachidonic acid application. The thickness of the right ear and the left ear was measured and the difference calculated as an indication of the inflammation in the right ear. Ear swelling was measured by a Dyer model micrometer gauge at 60 and 90 minutes after arachidonic acid application as an index of inflammation. Percent inhibition was calculated according to the formula: Ic−It/Ic×100, where Ic and It refers to increase of ear thickness (mm) in control and treated mice, respectively. ANOVA and Dunnett's test were employed to ascertain significant difference between vehicle control and treated groups. Significance is set at P<0.05 level.

| Compound | % Inhibition of ear swelling |
| --- | --- |
| CSCCC#N [3-(methylthio)propionitrile] | 43% |
| COc1ccc2c(c1)c(CC(=O)O)c(C)n2C(=O)c1ccc(Cl)cc1 [Indomethacin] | 53% |

Reference: patent US9474734B2, “Compounds for treating inflammation and pain” (Olatec Industries LLC, priority 2012, dated 2016)
